Assay results published in patent US20240002470A1, “Method for separation and/or detection and/or in vitro quantification of infectious compounds in biological material” (priority 2020, published 2024).

B1: β2GPI: plasma glycoprotein called β2-glycoprotein I, grafted on beads as the reference (protein, UniProt P02749 20-345, looked up)
Beta-2-glycoprotein 1: GRTCPKPDDLPFSTVVPLKTFYEPGEEITYSCKPGYVSRGGMRKFICPLTGLWPINTLKCTPRVCPFAGILENGAVRYTTFEYPNTISFSCNTGFYLNGADSAKCTEEGKWSPELPVCAPIICPPPSIPTFATLRVYKPSAGNNSLYRDTAVFECLPQHAMFGNDTITCTTHGNWTKLPECREVKCPFPSRPDNGFVNYPAKPTLYYKDKATFGCHDGYSLDGPEEIECTKLGNWSAMPSCKASCKVPVKKATVVYQGERVKIQEKFKNGMLHGDKVSFFCKNKEKKCSYTEDAQCIDGTIEVPKCFKEHSSLAFWKTDASDVKPC
modifications: grafted on beads

Columns and labels:
[1] = system: endogenous human retrovirus antigen (HERV), envelope protein of HERV-W; experiment: Capture of HERV antigen from serum on ELISA-type microtiter plates; assay type: binding
Experimental: The desired compound is an endogenous human retrovirus antigen (HERV: human endogenous retrovirus). Their research was carried out on serum from patients with autoimmune pathologies as well as on serum from healthy donors.
The support used is a microtiter plate of the ELISA type, with 96 wells and flat bottom, sold by the company “DYNATECH”. Four samples of serum from healthy donors and four samples from patients with autoimmune disease were used.
The serum sample is diluted ten times in 50 mM Tris-HCl buffer, pH 7.6±0.05.
100 μl of this solution are placed at the bottom of each well of the microplate.
This is then incubated at +37° C. for 90 minutes. The liquid from each well is then aspirated. Then 300 to 400 μl of phosphate buffer containing 0.01 mole/I of sodium and disodium phosphates and 0.15 mole/I of sodium chloride and having a pH of 7.00±0.05 are introduced into each well.
It is left in contact with the support for 3 minutes and the buffer is aspirated; this washing operation is carried out three times.
Next, 100 μl of a specific murine monoclonal antibody solution directed against the envelope protein of the endogenous HERV-W retrovirus is added per well.
The plate is left at 37° C. for 60 minutes.
(§1) Following this incubation, the contents of the wells of the plate are aspirated. 300 to 400 μl of phosphate buffer, described above, are introduced into each well, and after a contact time of 3 minutes, the buffer is aspirated; this washing operation is carried out three times.
as §1, with “Then, 100 μL of a solution of a polyclonal antibody recognizing the murine antibodies are added per well. The plate is left at 37° C. for 60 minutes. Following” for “Following”, “six” for “three”
100 μl of a solution of o-phenylene diamine, 2HCl in a sodium citrate buffer are added per well. It is left to incubate for 30 minutes at room temperature, then the reaction is stopped by adding to each well 50 μl of 2N H2 SO4. The absorbance at 492 nm obtained at the end of the reaction is measured using a plate reader robot.
Results in the following table are expressed in P/2N, P corresponding to the average of the absorbances obtained for a given serum and N corresponding to the average of the absorbances obtained from healthy donors, multiplied by 2.

S. maltophilia = experiment: Capture from blood culture on magnetic microbeads, culture on TS agar: S. maltophilia; assay type: binding
Experimental: (§2) The beads, on which β2GPI and peptides derived therefrom were grafted, were used for the capture of bacteria present in human blood and highlighted by blood culture.
(§3) These blood cultures are carried out by placing a venous blood sample […] in aerobic vials of BacT/ALERT®3D type. These flasks are then incubated in an automated system at 35° C. for at least 5 days. The bottles are equipped with a colorimetric detection system with a sensor located at the base of each bottle. Carbon dioxide produced by growing bacteria changes the color of the sensor; this change in color is detected by an automated system and indicates the presence of bacterial growth: these blood cultures are said to be positive. In the BacT/ALERT®3D vials there are particles of activated carbon, which inhibit antibiotics potentially present in the blood of patients, thereby improving the detection of microorganisms. To confirm the presence of bacteria in blood cultures which have been found positive, the hospital performs a culture on blood agar. […]
(§4) To test the interaction of microbeads coated with β2GPI and the peptides derived from them, with bacteria present in the blood, 1 ml of blood culture is taken from each sample and placed in a 15 ml tube. […] The bacteria that have grown on the agar were then counted.

[2] = system: HCV virus (hepatitis C virus); experiment: Capture of HCV virus from patient plasma on magnetic microbeads coated with pepβ2GPI, RT-PCR quantification; assay type: binding; conditions: for HCV/run copies: per run, virus captured on coated beads from plasma of patients
Experimental: (§5) The pepβ2GPI were grafted onto the microbeads according to the supplier's recommendations. In summary, the microbeads are suspended in phosphate buffer at a pH of 6.0. The beads are then activated, for 15 minutes, in the presence of 1-ethyl-3-(3-Dimethylaminopropyl) carbodiimide and N-hydroxysuccinimide. After washing with HCl, 2 mM, the beads are suspended in a phosphate buffer at a pH of 7.5, containing the pepβ2GPI. The concentration of pepβ2GPI in this coupling buffer is 20 mg/L; the microbeads are incubated in the buffer with gentle and constant shaking at a temperature of 25° C. for 3 hours. The microbeads are then centrifuged at 1,500 rpm and the supernatant is removed; the centrifugation pellet is suspended in the same buffer as that used for the coupling of pepβ2GPI, which forms the suspension of microbeads coated with pepβ2GPI which we want to test.
(§6) One hundred microliters of viral culture supernatant to be studied are placed in an Eppendorf tube with 900 microliters of Tris buffer at a pH of 7.5 and 10 microliters of microbeads. The tubes are shaken horizontally to mix the microbeads well, and each tube is incubated at 37° C. or at room temperature (RT=22° C.) for 30 minutes. In each tube, the microbeads are then separated from the liquid phase by means of a magnet, placed externally against the wall of the tube, and the viral RNA is extracted. The beads are brought into contact with a viral lysis buffer, included in an RNA extraction kit: QIAamp RNA viral kit, sold by QIAGEN and the viral RNA is isolated according to the seller's recommendations.
The virus used is the HCV virus (hepatitis C virus), present in the plasma of patients. The same protocol as described in example 1 was carried out.

[3] = system: IPN virus (Infectious pancreatic necrosis virus); experiment: Capture of IPN virus on magnetic microbeads coated with pepβ2GPI, RT-PCR quantification; assay type: binding; conditions: for IPN Copies: virus captured on coated beads from culture supernatant
Experimental: as §5, §6
The virus used is the IPN virus (Infectious pancreatic necrosis virus), responsible for necrosis of the pancreas in salmon, originating from a culture supernatant. The same protocol as described in example 1 was carried out.

E. coli B6054 = experiment: Capture of E. coli B6054 on magnetic microbeads, culture on TS agar and counting; assay type: binding, Escherichia coli; conditions: E. coli B6054 colonies from captured beads
SCN = experiment: Capture from blood culture on magnetic microbeads, culture on TS agar: SCN; assay type: binding
Experimental: as §2, §3, §4

[4] = serum 6s (patient with autoimmune pathology)
[5] = serum 45s (patient with autoimmune pathology)
[6] = serum 99s (patient with autoimmune pathology)
[7] = serum 100s (patient with autoimmune pathology)

| Molecule | P/2N [1, 4] | P/2N [1, 5] | P/2N [1, 6] | P/2N [1, 7] | P/2N ([1]; serum DS 45s (healthy donor)) | P/2N ([1]; serum DS 46s (healthy donor)) | P/2N ([1]; serum DS 60s (healthy donor)) | P/2N ([1]; serum DS 61s (healthy donor)) | % compared to β2GPI (S. maltophilia) [%] | % compared to β2GPI ([2]; HCV copies captured relative to β2GPI beads) | HCV/run copies [2] [copies] | % compared to β2GPI ([3]; IPN copies captured relative to β2GPI beads) | IPN Copies [3] [copies] | % compared to β2GPI (E. coli B6054) [%] | % compared to β2GPI (SCN) [%] |
| --- | --- | --- | --- | --- | --- | --- | --- | --- | --- | --- | --- | --- | --- | --- | --- |
| H-((SSLAFWK)2-K)2-K—NH2 [Peptide P11] | 1.185 | 1.228 | 0.977 | 4.039 | 0.77 | 0.718 | 0.631 | 0.727 | 29 | (86%) | 97 | (175%) | 21 | 91 | 101 |
| B1 | 0.928 | 1.112 | 0.974 | 4.9 | 0.69 | 0.79 | 0.637 | 0.498 | 100 | – | 113 | – | 12 | 100 | 100 |
